According to ChEMBL document CHEMBL1201862, “PubChem BioAssay data set” (2004):
Activity calls are given as the source filed them. For most assays here, no stated cut-off is given here; in the data, actives have a measured EC50 and inactives only a lower limit.

Assays:
[1] = molecular target: T1, Mannose-6-phosphate isomerase (Homo sapiens, UniProt P34949); experiment: human PMI inhibitors, high substrate, primary screen, biochemical, fluorescence intensity, high mannose 6-phosphate (AID 1220)
T1 sequence (P34949 whole entry): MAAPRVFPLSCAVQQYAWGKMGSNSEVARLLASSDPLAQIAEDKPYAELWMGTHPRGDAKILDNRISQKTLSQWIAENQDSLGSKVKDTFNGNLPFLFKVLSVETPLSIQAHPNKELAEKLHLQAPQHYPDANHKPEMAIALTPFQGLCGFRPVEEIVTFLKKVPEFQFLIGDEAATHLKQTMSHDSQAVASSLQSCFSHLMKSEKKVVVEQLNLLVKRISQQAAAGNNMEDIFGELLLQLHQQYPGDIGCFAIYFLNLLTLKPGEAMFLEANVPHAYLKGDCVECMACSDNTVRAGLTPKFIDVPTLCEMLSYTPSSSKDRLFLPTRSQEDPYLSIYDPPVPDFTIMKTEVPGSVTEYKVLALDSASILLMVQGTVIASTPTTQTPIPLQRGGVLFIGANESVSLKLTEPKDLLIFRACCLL

[2] = test system: BJ; experiment: cytotoxicity toward BJ-TERT-LT-ST fibroblasts, dose response, cell-based, RAS-independent, luminescence (AID 1935); type: functional; conditions: Homo sapiens;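 further: BJ fibroblasts immortalized with TERT plus LT and ST oncogenes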
[3] = molecular target: DNA dC->dU-editing enzyme APOBEC-3G (Homo sapiens, UniProt Q9HC16); experiment: Dose Response confirmation of small molecule APOBEC3G DNA Deaminase Inhibitors via a fluorescence-based single-stranded DNA deaminase assay. [Related pubchem assays (depositor defined):AID493012, AID493028]; type: functional
Chain of DNA dC->dU-editing enzyme APOBEC-3G (Q9HC16 whole entry): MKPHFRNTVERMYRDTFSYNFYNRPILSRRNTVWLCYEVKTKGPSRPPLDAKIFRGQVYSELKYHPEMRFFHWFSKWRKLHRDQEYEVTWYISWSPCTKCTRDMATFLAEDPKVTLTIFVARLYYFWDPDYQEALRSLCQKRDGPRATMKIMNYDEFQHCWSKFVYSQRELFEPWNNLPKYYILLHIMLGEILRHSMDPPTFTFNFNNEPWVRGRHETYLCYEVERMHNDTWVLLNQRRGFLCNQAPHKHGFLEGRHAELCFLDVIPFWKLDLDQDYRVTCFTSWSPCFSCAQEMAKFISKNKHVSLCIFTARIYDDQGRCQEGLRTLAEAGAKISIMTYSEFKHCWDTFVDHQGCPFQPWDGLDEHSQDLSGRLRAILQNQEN

[4] = test system: BJ; experiment: cytotoxicity toward BJ-TERT fibroblasts, dose response, cell-based, RAS-independent, luminescence (AID 1933); type: functional; conditions: Homo sapiens
[5] = cytotoxicity toward DRD oncogenic fibroblasts, dose response, cell-based, non-viral oncogenic, luminescence (AID 1934); type: functional; conditions: Homo sapiens
[6] = molecular target: T1, Mannose-6-phosphate isomerase; experiment: PMI enzyme inhibitors, confirmation, biochemical, fluorescence intensity (AID 1535)
[7] = molecular target: DNA dC->dU-editing enzyme APOBEC-3A (Homo sapiens, UniProt P31941); experiment: APOBEC3A DNA deaminase inhibitors, dose response, biochemical (AID 504722); type: functional
Chain of DNA dC->dU-editing enzyme APOBEC-3A (P31941 whole entry): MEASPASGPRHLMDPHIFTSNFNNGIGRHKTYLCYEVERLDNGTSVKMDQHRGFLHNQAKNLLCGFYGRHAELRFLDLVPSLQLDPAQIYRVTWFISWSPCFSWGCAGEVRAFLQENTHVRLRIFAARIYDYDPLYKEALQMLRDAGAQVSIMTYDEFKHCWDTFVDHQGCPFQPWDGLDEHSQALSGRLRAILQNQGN

[8] = test system: BJ; experiment: cells; type: functional, cell-based; conditions: Homo sapiens
[9] = molecular target: Lysine-specific demethylase 4C (Homo sapiens, UniProt Q9H3R0); experiment: GASC-1 (JMJD2C) histone demethylase inhibitors, dose response, biochemical, DELFIA europium, cherry-picked samples (AID 488835); type: functional
Chain of Lysine-specific demethylase 4C (Q9H3R0 whole entry): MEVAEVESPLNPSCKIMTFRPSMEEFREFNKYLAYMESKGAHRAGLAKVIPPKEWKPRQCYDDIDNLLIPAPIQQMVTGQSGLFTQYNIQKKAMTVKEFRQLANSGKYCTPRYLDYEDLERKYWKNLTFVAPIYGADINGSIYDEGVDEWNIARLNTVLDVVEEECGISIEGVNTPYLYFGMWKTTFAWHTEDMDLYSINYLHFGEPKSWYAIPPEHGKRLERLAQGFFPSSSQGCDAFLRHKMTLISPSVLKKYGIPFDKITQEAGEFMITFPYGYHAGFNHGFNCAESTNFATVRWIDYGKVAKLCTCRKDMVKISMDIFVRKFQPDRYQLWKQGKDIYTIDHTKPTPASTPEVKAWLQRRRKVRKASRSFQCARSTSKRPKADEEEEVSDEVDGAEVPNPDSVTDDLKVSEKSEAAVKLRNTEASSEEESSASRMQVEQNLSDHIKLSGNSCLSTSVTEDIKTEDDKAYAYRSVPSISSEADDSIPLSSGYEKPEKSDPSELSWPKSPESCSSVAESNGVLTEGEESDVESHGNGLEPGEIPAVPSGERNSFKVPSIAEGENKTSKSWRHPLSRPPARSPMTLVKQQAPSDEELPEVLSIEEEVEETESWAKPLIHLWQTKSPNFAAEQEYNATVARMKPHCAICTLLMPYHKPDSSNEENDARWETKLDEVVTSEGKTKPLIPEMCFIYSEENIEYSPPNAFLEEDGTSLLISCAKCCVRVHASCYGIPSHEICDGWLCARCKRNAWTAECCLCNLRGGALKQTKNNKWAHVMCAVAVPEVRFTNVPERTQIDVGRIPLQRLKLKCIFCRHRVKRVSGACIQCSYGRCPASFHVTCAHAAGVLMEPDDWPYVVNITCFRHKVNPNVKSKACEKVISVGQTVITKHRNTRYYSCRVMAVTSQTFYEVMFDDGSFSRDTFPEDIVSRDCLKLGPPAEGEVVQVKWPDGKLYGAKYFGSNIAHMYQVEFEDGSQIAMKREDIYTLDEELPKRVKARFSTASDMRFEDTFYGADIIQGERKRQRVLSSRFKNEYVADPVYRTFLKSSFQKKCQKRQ

[10] = molecular target: Phosphomannomutase 2 (Homo sapiens, UniProt O15305); experiment: Counter screen SAR assay for PMM2 inhibitors via a fluorescence intensity assay. [Related pubchem assays (depositor defined):AID1545, AID1574]
Chain of Phosphomannomutase 2 (O15305 whole entry): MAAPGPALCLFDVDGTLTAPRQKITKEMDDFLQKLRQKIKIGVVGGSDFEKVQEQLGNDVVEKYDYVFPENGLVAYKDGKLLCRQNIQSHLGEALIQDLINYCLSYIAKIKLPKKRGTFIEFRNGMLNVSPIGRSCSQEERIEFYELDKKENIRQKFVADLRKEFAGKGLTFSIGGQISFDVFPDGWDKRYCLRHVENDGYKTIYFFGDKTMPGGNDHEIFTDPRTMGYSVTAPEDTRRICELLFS

[11] = cells; type: functional, cell-based
[12] = test system: INS1; experiment: beta cell apoptosis inhibitors, cytokine rescue, dose response, luminescence, retest (AID 449756); type: functional, cell-based; conditions: Rattus norvegicus, INS1;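 further: cell death triggered by IL-1 beta plus TNF-alpha plus IFN-gamma mixture; protective hits raise ATP signal compared with cytokine alone wells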
[13] = molecular target: T2, Streptokinase A (Streptococcus pyogenes serotype M1, UniProt P10520); experiment: S. pyogenes streptokinase expression inhibitors, potency, dose response, plasminogen activation absorbance, OD405 (AID 1914); type: functional, Streptococcus pyogenes M1 GAS;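 further: secreted streptokinase activity via plasminogen activation per viability signal from cell pellet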
T2 sequence (P10520 whole entry): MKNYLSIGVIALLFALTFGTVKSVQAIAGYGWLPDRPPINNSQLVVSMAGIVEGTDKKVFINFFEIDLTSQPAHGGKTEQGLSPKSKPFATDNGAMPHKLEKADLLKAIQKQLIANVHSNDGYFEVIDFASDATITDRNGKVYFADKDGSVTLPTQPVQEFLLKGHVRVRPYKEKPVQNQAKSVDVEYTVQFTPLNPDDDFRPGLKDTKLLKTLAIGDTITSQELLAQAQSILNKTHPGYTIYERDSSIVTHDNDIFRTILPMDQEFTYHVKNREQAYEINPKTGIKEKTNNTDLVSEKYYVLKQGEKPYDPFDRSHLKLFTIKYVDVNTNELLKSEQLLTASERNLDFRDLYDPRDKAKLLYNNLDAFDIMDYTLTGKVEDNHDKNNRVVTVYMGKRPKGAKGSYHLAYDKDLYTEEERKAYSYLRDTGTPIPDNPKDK

[14] = inhibitors of firefly luciferase expression or activity, dose response, H4 neuroglioma cells, luminescence (AID 1990); type: functional, cell-based
[15] = test system: Streptococcus sp. 'group A'; experiment: growth inhibition of control SK(-) GAS strain, dose response, counter-screen for streptokinase expression inhibitor project, luminescence, kanamycin, BacTiterGlo, confirmation (AID 1900); type: functional, organism-based
[16] = test system: BJ; experiment: cytotoxicity toward Ras-transformed BJeLR fibroblasts, dose response, cell-based, alamar blue fluorescence, cherrypicked samples (AID 2631); type: functional; conditions: Homo sapiens;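 further: confirmatory dose-response assay in RAS-dependent BJ fibroblasts engineered with TERT, LT and ST, with cytotoxicity read by fluorescence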
[17] = molecular target: T3, Replicative DNA helicase DnaB (Mycobacterium tuberculosis, UniProt P9WMR3); experiment: DnaB intein splicing inhibitors, dose response, biochemical, cell-free fluorescence (AID 449749); type: functional
T3 sequence (P9WMR3 whole entry): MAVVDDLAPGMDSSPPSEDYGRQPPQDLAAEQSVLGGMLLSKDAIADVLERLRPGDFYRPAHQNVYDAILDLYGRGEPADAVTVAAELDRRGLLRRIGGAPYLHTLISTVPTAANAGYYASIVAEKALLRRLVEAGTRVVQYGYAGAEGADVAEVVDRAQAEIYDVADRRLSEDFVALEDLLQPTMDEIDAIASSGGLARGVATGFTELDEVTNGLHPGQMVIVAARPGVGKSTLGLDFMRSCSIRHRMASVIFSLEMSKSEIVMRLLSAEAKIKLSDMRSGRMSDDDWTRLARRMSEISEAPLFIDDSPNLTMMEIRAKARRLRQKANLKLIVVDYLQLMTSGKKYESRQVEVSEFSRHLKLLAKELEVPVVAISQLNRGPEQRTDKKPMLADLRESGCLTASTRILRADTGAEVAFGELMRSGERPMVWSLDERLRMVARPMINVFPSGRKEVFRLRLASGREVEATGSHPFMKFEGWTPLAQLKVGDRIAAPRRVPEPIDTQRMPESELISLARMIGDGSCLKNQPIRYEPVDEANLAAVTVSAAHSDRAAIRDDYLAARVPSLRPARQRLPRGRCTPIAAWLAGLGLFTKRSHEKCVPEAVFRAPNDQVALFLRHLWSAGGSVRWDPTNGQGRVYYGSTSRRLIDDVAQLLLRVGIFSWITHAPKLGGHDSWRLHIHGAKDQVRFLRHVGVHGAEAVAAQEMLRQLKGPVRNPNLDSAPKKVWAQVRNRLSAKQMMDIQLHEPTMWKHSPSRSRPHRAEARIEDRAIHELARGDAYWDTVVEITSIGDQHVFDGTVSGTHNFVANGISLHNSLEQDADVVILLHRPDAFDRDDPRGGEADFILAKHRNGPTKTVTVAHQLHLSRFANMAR

[18] = Luminescence Cell-Based Dose Response HTS to Identify Inhibitors of 5'UTR Stem-Loop Driven Prion Protein mRNA Translation in H4 Neuroglioblastoma Cells. [Related pubchem assays: 1827 (Project Summary), 1813 (Primary HTS)]; type: functional
[19] = inhibitors of SNCA 5'UTR-driven reporter translation, confirmation, H4 neuroglioma cells, luminescence (AID 1988); type: functional, cell-based
[20] = molecular target: Nonstructural protein 1 (Influenza A virus, UniProt Q194T2); type: functional, Influenza A virus (A/California/07/2009(H1N1))
Chain of Nonstructural protein 1 (Q194T2 whole entry): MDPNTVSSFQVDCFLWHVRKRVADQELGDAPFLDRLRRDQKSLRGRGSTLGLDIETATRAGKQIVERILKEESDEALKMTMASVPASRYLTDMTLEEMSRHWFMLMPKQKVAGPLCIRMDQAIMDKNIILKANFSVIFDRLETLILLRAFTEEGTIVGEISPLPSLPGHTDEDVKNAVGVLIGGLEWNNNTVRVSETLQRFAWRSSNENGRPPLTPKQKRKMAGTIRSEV

[21] = molecular target: Exodeoxyribonuclease V (Escherichia coli (strain K12), UniProt P04993+P07648+P08394); experiment: E. coli RecBCD inhibitors, dose response, counter-screen for AddAB inhibitor project, absorbance, V66 E. coli, mutant T4 phage (AID 492957); type: functional, cell-based, Escherichia coli str. K-12 substr. MG1655
Chain of Exodeoxyribonuclease V (P04993 whole entry): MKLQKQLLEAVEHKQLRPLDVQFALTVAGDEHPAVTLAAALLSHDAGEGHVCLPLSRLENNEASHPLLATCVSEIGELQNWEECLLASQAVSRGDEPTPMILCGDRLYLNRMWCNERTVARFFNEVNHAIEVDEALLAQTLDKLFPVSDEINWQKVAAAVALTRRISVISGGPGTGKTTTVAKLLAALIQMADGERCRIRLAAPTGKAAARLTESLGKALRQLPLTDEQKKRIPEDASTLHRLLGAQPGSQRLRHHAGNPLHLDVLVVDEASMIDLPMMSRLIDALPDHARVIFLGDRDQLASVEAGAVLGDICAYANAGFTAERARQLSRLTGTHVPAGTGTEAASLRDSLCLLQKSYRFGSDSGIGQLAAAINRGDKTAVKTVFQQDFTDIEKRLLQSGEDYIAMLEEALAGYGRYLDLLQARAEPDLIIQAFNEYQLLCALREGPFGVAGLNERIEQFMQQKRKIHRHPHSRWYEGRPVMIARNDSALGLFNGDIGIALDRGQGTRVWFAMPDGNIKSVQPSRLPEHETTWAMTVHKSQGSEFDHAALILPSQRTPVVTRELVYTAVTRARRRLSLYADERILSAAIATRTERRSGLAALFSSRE
Chain of Exodeoxyribonuclease V (P07648 whole entry): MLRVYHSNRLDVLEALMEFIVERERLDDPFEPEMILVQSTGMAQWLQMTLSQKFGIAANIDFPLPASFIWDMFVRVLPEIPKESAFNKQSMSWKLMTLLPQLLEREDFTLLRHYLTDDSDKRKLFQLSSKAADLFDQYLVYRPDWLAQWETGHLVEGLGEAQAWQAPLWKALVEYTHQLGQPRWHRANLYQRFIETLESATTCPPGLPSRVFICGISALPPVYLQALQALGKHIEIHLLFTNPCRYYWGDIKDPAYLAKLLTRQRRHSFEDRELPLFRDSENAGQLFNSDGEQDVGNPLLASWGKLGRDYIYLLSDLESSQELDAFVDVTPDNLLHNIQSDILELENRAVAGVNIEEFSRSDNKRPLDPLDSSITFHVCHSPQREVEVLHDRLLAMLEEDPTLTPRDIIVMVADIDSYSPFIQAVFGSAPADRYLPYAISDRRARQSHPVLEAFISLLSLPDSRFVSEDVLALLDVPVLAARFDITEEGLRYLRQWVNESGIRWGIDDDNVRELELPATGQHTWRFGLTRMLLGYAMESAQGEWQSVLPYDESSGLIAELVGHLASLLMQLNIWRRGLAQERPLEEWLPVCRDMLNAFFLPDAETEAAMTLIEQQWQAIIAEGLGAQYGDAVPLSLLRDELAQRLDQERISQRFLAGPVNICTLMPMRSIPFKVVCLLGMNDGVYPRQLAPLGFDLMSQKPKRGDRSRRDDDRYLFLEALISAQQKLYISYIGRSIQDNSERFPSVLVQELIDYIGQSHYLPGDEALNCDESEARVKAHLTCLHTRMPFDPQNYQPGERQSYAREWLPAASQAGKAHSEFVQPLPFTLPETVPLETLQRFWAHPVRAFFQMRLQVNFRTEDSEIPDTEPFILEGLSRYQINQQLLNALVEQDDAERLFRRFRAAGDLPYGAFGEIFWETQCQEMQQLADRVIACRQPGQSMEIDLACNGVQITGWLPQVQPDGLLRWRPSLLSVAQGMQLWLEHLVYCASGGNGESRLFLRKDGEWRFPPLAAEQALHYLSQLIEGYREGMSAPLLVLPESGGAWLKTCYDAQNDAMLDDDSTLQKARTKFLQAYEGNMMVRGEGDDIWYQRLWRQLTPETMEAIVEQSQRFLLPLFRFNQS
Chain of Exodeoxyribonuclease V (P08394 whole entry): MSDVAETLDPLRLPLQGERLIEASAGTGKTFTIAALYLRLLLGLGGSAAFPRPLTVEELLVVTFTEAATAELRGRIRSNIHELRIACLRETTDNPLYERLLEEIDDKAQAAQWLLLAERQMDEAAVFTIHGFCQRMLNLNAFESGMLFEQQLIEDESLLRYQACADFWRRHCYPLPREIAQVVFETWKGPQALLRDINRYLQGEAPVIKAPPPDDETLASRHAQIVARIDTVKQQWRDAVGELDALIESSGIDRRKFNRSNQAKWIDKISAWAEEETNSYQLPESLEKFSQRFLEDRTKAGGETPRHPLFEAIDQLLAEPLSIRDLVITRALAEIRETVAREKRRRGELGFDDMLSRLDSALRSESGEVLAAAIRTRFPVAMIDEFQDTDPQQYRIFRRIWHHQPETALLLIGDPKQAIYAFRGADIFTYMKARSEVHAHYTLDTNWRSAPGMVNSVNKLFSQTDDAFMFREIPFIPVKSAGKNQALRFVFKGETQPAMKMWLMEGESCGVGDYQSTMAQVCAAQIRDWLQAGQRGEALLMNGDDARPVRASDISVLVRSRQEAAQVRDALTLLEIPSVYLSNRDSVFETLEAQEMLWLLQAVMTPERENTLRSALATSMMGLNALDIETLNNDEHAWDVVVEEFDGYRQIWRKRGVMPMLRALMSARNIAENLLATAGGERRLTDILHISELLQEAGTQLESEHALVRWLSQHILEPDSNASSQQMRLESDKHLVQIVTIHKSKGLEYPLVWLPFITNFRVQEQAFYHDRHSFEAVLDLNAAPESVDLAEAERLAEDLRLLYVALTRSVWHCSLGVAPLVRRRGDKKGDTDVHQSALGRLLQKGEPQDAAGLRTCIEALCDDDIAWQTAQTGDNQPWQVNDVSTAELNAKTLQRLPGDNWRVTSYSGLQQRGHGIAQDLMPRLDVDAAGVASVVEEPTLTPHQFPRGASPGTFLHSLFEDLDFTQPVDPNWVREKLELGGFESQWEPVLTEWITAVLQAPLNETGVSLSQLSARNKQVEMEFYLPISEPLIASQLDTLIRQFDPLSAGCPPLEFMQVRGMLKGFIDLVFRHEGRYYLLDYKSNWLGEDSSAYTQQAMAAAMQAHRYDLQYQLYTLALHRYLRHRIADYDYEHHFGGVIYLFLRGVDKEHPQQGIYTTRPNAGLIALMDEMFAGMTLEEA

[22] = molecular target: Heat shock protein HSP 90-alpha (Homo sapiens, UniProt P07900); type: functional, organism-based
[23] = cells; type: functional, cell-based; remark: listed apart in the source
[24] = molecular target: T4, Protein RecA (Mycobacterium tuberculosis, UniProt P9WHJ3); experiment: Fluorescence Cell-Free Homogeneous Dose Retest to Identify Inhibitors of RecA-Intein Splicing Activity. [Related pubchem assays (depositor defined):AID2097, AID2223, AID489010, AID492950]; type: functional
T4 sequence (P9WHJ3 whole entry): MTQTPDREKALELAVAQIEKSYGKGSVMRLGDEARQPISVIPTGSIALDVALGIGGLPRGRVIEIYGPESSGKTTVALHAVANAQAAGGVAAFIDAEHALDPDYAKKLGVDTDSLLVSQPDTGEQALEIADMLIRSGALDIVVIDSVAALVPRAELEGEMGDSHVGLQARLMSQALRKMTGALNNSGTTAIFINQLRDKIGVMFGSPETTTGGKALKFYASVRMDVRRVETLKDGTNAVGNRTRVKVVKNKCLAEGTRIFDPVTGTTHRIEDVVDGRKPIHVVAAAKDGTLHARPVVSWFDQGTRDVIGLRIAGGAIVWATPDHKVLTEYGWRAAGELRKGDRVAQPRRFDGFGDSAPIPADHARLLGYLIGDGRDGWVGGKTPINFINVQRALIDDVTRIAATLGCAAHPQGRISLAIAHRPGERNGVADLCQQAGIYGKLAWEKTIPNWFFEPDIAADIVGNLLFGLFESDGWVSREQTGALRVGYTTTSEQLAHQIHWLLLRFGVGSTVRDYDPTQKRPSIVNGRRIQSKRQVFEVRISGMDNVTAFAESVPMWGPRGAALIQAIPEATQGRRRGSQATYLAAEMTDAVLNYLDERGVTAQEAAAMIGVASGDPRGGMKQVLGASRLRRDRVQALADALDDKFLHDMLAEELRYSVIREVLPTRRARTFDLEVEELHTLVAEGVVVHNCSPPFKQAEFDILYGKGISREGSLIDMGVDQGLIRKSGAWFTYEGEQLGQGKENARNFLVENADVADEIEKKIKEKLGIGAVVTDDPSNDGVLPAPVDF

[25] = Counterscreen for AddAB inhibitors: absorbance-based bacterial cell-based high throughput dose response assay for inhibitors of bacterial viability. [Related pubchem assays (depositor defined):AID435030, AID449728, AID449731, AID488942, AID488955, AID488956]; type: functional
[26] = test system: Streptococcus; experiment: Group A Streptococcus viability loss, dose response, counter-screen for streptokinase expression inhibitor project, luminescence, BacTiterGlo (AID 1915); type: functional, organism-based;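 further: potency for reduction of bacterial viability or growth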

With `N#Cc1ccc(/N=c2\ssnc2Cl)cc1` the IC50 [1] was 6.34 µM (not active), the EC50 [2] was > 150 µM (inconclusive) and the IC50 [3] was 7.33 µM (active). For the same molecule, the EC50 [4] was 6.16 µM (inconclusive), the EC50 [5] was 14.3 µM (active) and the IC50 [6] was 4.14 µM (active). The IC50 [7] was > 100 µM (inactive), the EC50 [8] was > 150 µM (inconclusive) and the AC50 [9] was 5.67 µM (active). The IC50 [10] was > 100 µM (inactive).

In the case of `c1ccc(-c2nnc(-c3ccccn3)nc2NC2CCCCC2)cc1`, the EC50 [11] was 32.6 µM (active), the AC50 [12] was 3.94 µM (active) and the EC50 [13] was > 50 µM (not active). For the same molecule, the EC50 [2] was 3.31 µM (inconclusive), the EC50 [14] was 513 nM (inconclusive) and the EC50 [15] was 4.44 µM (active). The EC50 [16] was 585 nM (inconclusive), the AC50 [17] was 9.45 µM (active) and the EC50 [18] was 18.8 µM (active). For the same molecule, the EC50 [4] was 3.21 µM (active), the EC50 [19] was 1.66 µM (inconclusive) and the EC50 [5] was 4.27 µM (active). The IC50 [20] was 1.21 µM (active), the IC50 [21] was > 39.5 µM (inactive) and the AC50 [22] was 3.99 µM (active). The EC50 [23] was > 350 µM (not active), the EC50 [8] was 4.7 µM (active) and the EC50 [24] was 16.9 µM (active). For the same molecule, the IC50 [25] was > 39.5 µM (inactive) and the EC50 [26] was 4.21 µM (active).
